Assay results published in patent publication US4740601A, “Imidazole derivatives having antimicrobial activities” (SS Pharmaceutical Co., Ltd., priority 1985, dated 1988).
Converted amounts (≈) assume the structure as drawn.

Test system: Streptococcus faecalis IFO 12964
Assay: antimicrobial activity, MIC
Assay type: cell-based
Conditions: Enterococcus faecalis, IFO12964, Streptococcus faecalis IFO 12964; read-out: MIC

Q: Which MIC does the source give for `CCCOc1ccccc1C(=CSCc1ccccc1)n1ccnc1` (single isomer, unassigned) [Compound 3, 1-(2-n-propyloxyphenyl)-1-imidazolyl-2-benzylthioethylene] here?
A: 6.25 µg/mL (≈ 17.8 µM)

Test system: Candida albicans Yu-1200
Assay: antimicrobial activity, MIC
Assay type: cell-based
Conditions: YU1200, read-out: MIC

Q: For `CCCOc1ccccc1C(=CSCc1ccccc1)n1ccnc1` (single isomer, unassigned) [Compound 3, 1-(2-n-propyloxyphenyl)-1-imidazolyl-2-benzylthioethylene], which MIC is on record?
A: > 100 µg/mL

Test system: Fusarium moniliforme IAM 5062
Assay: antimicrobial activity, MIC
Assay type: cell-based
Conditions: Fusarium moniliforme IAM 5062

Q: With `CCCOc1ccccc1C(=CSCc1ccccc1)n1ccnc1` (single isomer, unassigned) [Compound 3, 1-(2-n-propyloxyphenyl)-1-imidazolyl-2-benzylthioethylene] as the molecule, how does the MIC read?
A: > 100 µg/mL

Test system: Staphylococcus aureus Terajima
Assay: antimicrobial activity, MIC
Assay type: cell-based
Conditions: Staphylococcus aureus, read-out: MIC

Q: For `CCCOc1ccccc1C(=CSCc1ccccc1)n1ccnc1` (single isomer, unassigned) [Compound 3, 1-(2-n-propyloxyphenyl)-1-imidazolyl-2-benzylthioethylene], which MIC is on record?
A: 6.25 µg/mL (≈ 17.8 µM)

Test system: Epidermophyton floccosum IFO 9045
Assay: antimicrobial activity, MIC
Assay type: cell-based
Conditions: Epidermophyton floccosum, IFO9045, Epidermophyton floccosum IFO 9045; read-out: MIC

Q: For `CCCOc1ccccc1C(=CSCc1ccccc1)n1ccnc1` (single isomer, unassigned) [Compound 3, 1-(2-n-propyloxyphenyl)-1-imidazolyl-2-benzylthioethylene], which MIC is on record?
A: 3.12 µg/mL (≈ 8.9 µM)

Test system: Microsporum gypseum IFO 8231
Assay: antimicrobial activity, MIC
Assay type: cell-based
Conditions: Nannizzia gypsea, IFO8231, Microsporum gypseum IFO 8231; read-out: MIC

Q: `CCCOc1ccccc1C(=CSCc1ccccc1)n1ccnc1` (single isomer, unassigned) [Compound 3, 1-(2-n-propyloxyphenyl)-1-imidazolyl-2-benzylthioethylene] was tested. Which MIC did it give?
A: < 0.2 µg/mL

Test system: Bacillus subtilis ATCC 6633
Assay: antimicrobial activity, MIC
Assay type: cell-based
Conditions: Bacillus subtilis ATCC 6633

Q: With `CCCOc1ccccc1C(=CSCc1ccccc1)n1ccnc1` (single isomer, unassigned) [Compound 3, 1-(2-n-propyloxyphenyl)-1-imidazolyl-2-benzylthioethylene] as the molecule, how does the MIC read?
A: 1.56 µg/mL (≈ 4.45 µM)

Test system: Gibberella fujikuroi IAM 8046
Assay: antimicrobial activity, MIC
Assay type: cell-based
Conditions: Gibberella fujikuroi IAM 8046

Q: How did the MIC turn out when `CCCOc1ccccc1C(=CSCc1ccccc1)n1ccnc1` (single isomer, unassigned) [Compound 3, 1-(2-n-propyloxyphenyl)-1-imidazolyl-2-benzylthioethylene] was run?
A: 25 µg/mL (≈ 71.3 µM)

Test system: Staphylococcus aureus FDA 209P
Assay: antimicrobial activity, MIC
Assay type: cell-based
Conditions: Staphylococcus aureus, FDA209P, read-out: MIC

Q: With `CCCOc1ccccc1C(=CSCc1ccccc1)n1ccnc1` (single isomer, unassigned) [Compound 3, 1-(2-n-propyloxyphenyl)-1-imidazolyl-2-benzylthioethylene] as the molecule, how does the MIC read?
A: 12.5 µg/mL (≈ 35.7 µM)

Test system: Helminthosporium sesamum IAM 5012
Assay: antimicrobial activity, MIC
Assay type: cell-based
Conditions: Helminthosporium, IAM5012, Helminthosporium sesamum IAM 5012; read-out: MIC

Q: With `CCCOc1ccccc1C(=CSCc1ccccc1)n1ccnc1` (single isomer, unassigned) [Compound 3, 1-(2-n-propyloxyphenyl)-1-imidazolyl-2-benzylthioethylene] as the molecule, how does the MIC read?
A: < 0.2 µg/mL

Test system: Staphylococcus epidermidis ATCC 12228
Assay: antimicrobial activity, MIC
Assay type: cell-based
Conditions: Staphylococcus epidermidis ATCC 12228

Q: For `CCCOc1ccccc1C(=CSCc1ccccc1)n1ccnc1` (single isomer, unassigned) [Compound 3, 1-(2-n-propyloxyphenyl)-1-imidazolyl-2-benzylthioethylene], which MIC is on record?
A: 3.12 µg/mL (≈ 8.9 µM)

Test system: Cladosporium fulvum IAM 5006
Assay: antimicrobial activity, MIC
Assay type: cell-based
Conditions: Fulvia fulva, IAM5006, Cladosporium fulvum IAM 5006; read-out: MIC

Q: `CCCOc1ccccc1C(=CSCc1ccccc1)n1ccnc1` (single isomer, unassigned) [Compound 3, 1-(2-n-propyloxyphenyl)-1-imidazolyl-2-benzylthioethylene] was tested. Which MIC did it give?
A: 12.5 µg/mL (≈ 35.7 µM)

Test system: Pyricularia oryzae IAM 5016
Assay: microbe, parasite or virus in culture
Assay type: cell-based
Conditions: Pyricularia oryzae, IAM5016, Pyricularia oryzae IAM 5016

Q: Which MIC does the source give for `CCCOc1ccccc1C(=CSCc1ccccc1)n1ccnc1` (single isomer, unassigned) [Compound 3, 1-(2-n-propyloxyphenyl)-1-imidazolyl-2-benzylthioethylene] here?
A: < 0.2 µg/mL

Test system: Trichophyton mentagrophytes QM 248
Assay: antimicrobial activity, MIC
Assay type: cell-based
Conditions: Trichophyton mentagrophytes, QM248, Trichophyton mentagrophytes QM 248; read-out: MIC

Q: `CCCOc1ccccc1C(=CSCc1ccccc1)n1ccnc1` (single isomer, unassigned) [Compound 3, 1-(2-n-propyloxyphenyl)-1-imidazolyl-2-benzylthioethylene] was tested. Which MIC did it give?
A: < 0.2 µg/mL

Test system: Penicillium chrysogenum ATCC 6010
Assay: antimicrobial activity, MIC
Assay type: cell-based
Conditions: Penicillium chrysogenum ATCC 6010

Q: For `CCCOc1ccccc1C(=CSCc1ccccc1)n1ccnc1` (single isomer, unassigned) [Compound 3, 1-(2-n-propyloxyphenyl)-1-imidazolyl-2-benzylthioethylene], which MIC is on record?
A: 50 µg/mL (≈ 143 µM)

Test system: Debaryomyces kloeckeri IFO 0015
Assay: antimicrobial activity, MIC
Assay type: cell-based
Conditions: IFO0015, read-out: MIC

Q: With `CCCOc1ccccc1C(=CSCc1ccccc1)n1ccnc1` (single isomer, unassigned) [Compound 3, 1-(2-n-propyloxyphenyl)-1-imidazolyl-2-benzylthioethylene] as the molecule, how does the MIC read?
A: 6.25 µg/mL (≈ 17.8 µM)

Test system: Micrococcus lysodeixticus IFO 3333
Assay: antimicrobial activity, MIC
Assay type: cell-based
Conditions: Micrococcus lysodeixticus IFO 3333

Q: For `CCCOc1ccccc1C(=CSCc1ccccc1)n1ccnc1` (single isomer, unassigned) [Compound 3, 1-(2-n-propyloxyphenyl)-1-imidazolyl-2-benzylthioethylene], which MIC is on record?
A: 0.78 µg/mL (≈ 2.23 µM)

Test system: Microsporum cookei IFO 8303
Assay: antimicrobial activity, MIC
Assay type: cell-based
Conditions: Microsporum cookei IFO 8303

Q: `CCCOc1ccccc1C(=CSCc1ccccc1)n1ccnc1` (single isomer, unassigned) [Compound 3, 1-(2-n-propyloxyphenyl)-1-imidazolyl-2-benzylthioethylene] was tested. Which MIC did it give?
A: 6.25 µg/mL (≈ 17.8 µM)

Test system: Staphylococcus aureus Smith
Assay: antimicrobial activity, MIC
Assay type: cell-based
Conditions: Staphylococcus aureus, read-out: MIC

Q: With `CCCOc1ccccc1C(=CSCc1ccccc1)n1ccnc1` (single isomer, unassigned) [Compound 3, 1-(2-n-propyloxyphenyl)-1-imidazolyl-2-benzylthioethylene] as the molecule, how does the MIC read?
A: 6.25 µg/mL (≈ 17.8 µM)

Test system: Candida albicans NHL 4019
Assay: antimicrobial activity, MIC
Assay type: cell-based
Conditions: Candida albicans, NHL4019, Candida albicans NHL 4019; read-out: MIC

Q: How did the MIC turn out when `CCCOc1ccccc1C(=CSCc1ccccc1)n1ccnc1` (single isomer, unassigned) [Compound 3, 1-(2-n-propyloxyphenyl)-1-imidazolyl-2-benzylthioethylene] was run?
A: 50 µg/mL (≈ 143 µM)

Test system: Saccharomyces ruxii 6507
Assay: antimicrobial activity, MIC
Assay type: cell-based
Conditions: Saccharomyces ruxii 6507; read-out: MIC

Q: Which MIC does the source give for `CCCOc1ccccc1C(=CSCc1ccccc1)n1ccnc1` (single isomer, unassigned) [Compound 3, 1-(2-n-propyloxyphenyl)-1-imidazolyl-2-benzylthioethylene] here?
A: < 0.2 µg/mL

Test system: Trichophyton rubrum NHL J
Assay: antimicrobial activity, MIC
Assay type: cell-based
Conditions: Trichophyton rubrum, Trichophyton rubrum NHL J; read-out: MIC

Q: How did the MIC turn out when `CCCOc1ccccc1C(=CSCc1ccccc1)n1ccnc1` (single isomer, unassigned) [Compound 3, 1-(2-n-propyloxyphenyl)-1-imidazolyl-2-benzylthioethylene] was run?
A: < 0.2 µg/mL

Test system: Sarcina lutea ATCC 9341
Assay: antimicrobial activity, MIC
Assay type: cell-based
Conditions: Sarcina lutea ATCC 9341

Q: With `CCCOc1ccccc1C(=CSCc1ccccc1)n1ccnc1` (single isomer, unassigned) [Compound 3, 1-(2-n-propyloxyphenyl)-1-imidazolyl-2-benzylthioethylene] as the molecule, how does the MIC read?
A: 1.56 µg/mL (≈ 4.45 µM)

Test system: Aspergillus oryzae IMF 4014
Assay: antimicrobial activity, MIC
Assay type: cell-based
Conditions: Aspergillus oryzae IMF 4014

Q: For `CCCOc1ccccc1C(=CSCc1ccccc1)n1ccnc1` (single isomer, unassigned) [Compound 3, 1-(2-n-propyloxyphenyl)-1-imidazolyl-2-benzylthioethylene], which MIC is on record?
A: 6.25 µg/mL (≈ 17.8 µM)

Test system: Microsporum audounii IFO 6074
Assay: antimicrobial activity, MIC
Assay type: cell-based
Conditions: Microsporum, IFO6074, Microsporum audounii IFO 6074; read-out: MIC

Q: For `CCCOc1ccccc1C(=CSCc1ccccc1)n1ccnc1` (single isomer, unassigned) [Compound 3, 1-(2-n-propyloxyphenyl)-1-imidazolyl-2-benzylthioethylene], which MIC is on record?
A: < 0.2 µg/mL

Test system: Saccharomyces cerevisiae ATCC 9763
Assay: antimicrobial activity, MIC
Assay type: cell-based
Conditions: Saccharomyces cerevisiae, ATCC9763, Saccharomyces cerevisiae ATCC 9763; read-out: MIC

Q: With `CCCOc1ccccc1C(=CSCc1ccccc1)n1ccnc1` (single isomer, unassigned) [Compound 3, 1-(2-n-propyloxyphenyl)-1-imidazolyl-2-benzylthioethylene] as the molecule, how does the MIC read?
A: < 0.2 µg/mL

Test system: Aspergillus niger ATCC 9642
Assay: antimicrobial activity, MIC
Assay type: cell-based
Conditions: Aspergillus niger ATCC 9642

Q: Which MIC does the source give for `CCCOc1ccccc1C(=CSCc1ccccc1)n1ccnc1` (single isomer, unassigned) [Compound 3, 1-(2-n-propyloxyphenyl)-1-imidazolyl-2-benzylthioethylene] here?
A: 0.39 µg/mL (≈ 1.11 µM)

Test system: Trichophyton mentagrophytes IFO 5812
Assay: antimicrobial activity, MIC
Assay type: cell-based
Conditions: Trichophyton mentagrophytes, IFO5812, Trichophyton mentagrophytes IFO 5812; read-out: MIC

Q: How did the MIC turn out when `CCCOc1ccccc1C(=CSCc1ccccc1)n1ccnc1` (single isomer, unassigned) [Compound 3, 1-(2-n-propyloxyphenyl)-1-imidazolyl-2-benzylthioethylene] was run?
A: < 0.2 µg/mL

Test system: Trichophyton tonsurans IFO 5928
Assay: antimicrobial activity, MIC
Assay type: cell-based
Conditions: Trichophyton tonsurans, IFO5928, Trichophyton tonsurans IFO 5928; read-out: MIC

Q: How did the MIC turn out when `CCCOc1ccccc1C(=CSCc1ccccc1)n1ccnc1` (single isomer, unassigned) [Compound 3, 1-(2-n-propyloxyphenyl)-1-imidazolyl-2-benzylthioethylene] was run?
A: < 0.2 µg/mL
